Laboratory results as given in patent US9073855B2, “BCL-2 selective apoptosis-inducing agents for the treatment of cancer and immune diseases” (AbbVie Inc., priority 2008, dated 2015).

How the values were obtained:
[1] = target: GST-Bcl-XL (Homo sapiens, UniProt Q07817); test: TR-FRET binding assay, GST-Bcl-XL with F-Bak peptide probe; conditions: TR-FRET Binding Affinity, GST-Bcl-XL, F-Bak peptide probe
Procedure, shortened: (§1)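 Compounds were serially diluted in DMSO from a 50 μM starting solution (2× the starting concentration; 10% DMSO). Plates were incubated for 3 h at room temperature, and TR-FRET was read with 340/35 nm excitation and emission at 520/525 nm (F-Bak) and 495/510 nm (Tb antibody). Ki values were calculated using Wang's competitive-binding equation.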

[2] = target: GST-Bcl-2 (Homo sapiens, UniProt P10415); test: TR-FRET binding assay, GST-Bcl-2 with F-Bak peptide probe; conditions: TR-FRET Binding Affinity, GST-Bcl-2, F-Bak peptide probe
GST-Bcl-2, sequence (P10415 whole entry): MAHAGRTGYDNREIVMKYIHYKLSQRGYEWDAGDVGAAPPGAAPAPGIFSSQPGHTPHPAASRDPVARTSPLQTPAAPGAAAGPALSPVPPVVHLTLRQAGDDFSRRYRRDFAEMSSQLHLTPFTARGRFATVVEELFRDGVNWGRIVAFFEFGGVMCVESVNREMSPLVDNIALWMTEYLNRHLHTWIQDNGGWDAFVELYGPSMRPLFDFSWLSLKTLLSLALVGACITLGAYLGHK
Procedure, shortened: as §1

[3] = test system: FL5.12/Bcl-2 cells; test: FL5.12/Bcl-2 cell viability assay under IL-3 withdrawal (CellTitre Glo); format: cell-based, murine; conditions: Mus musculus, IL-3 withdrawn 48 hrs, then 24 hrs with compound
Procedure, shortened: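 Viability measured with CellTiter-Glo after 24 h compound treatment at various concentrations, following 48 h IL-3 withdrawal (no WEHI-3B medium). Cells: prolymphocytic mouse FL5.12 line stably transfected to overexpress Bcl-2, cultured at 37 °C, 5% CO2.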

GST-Bcl-XL, sequence (Q07817 whole entry): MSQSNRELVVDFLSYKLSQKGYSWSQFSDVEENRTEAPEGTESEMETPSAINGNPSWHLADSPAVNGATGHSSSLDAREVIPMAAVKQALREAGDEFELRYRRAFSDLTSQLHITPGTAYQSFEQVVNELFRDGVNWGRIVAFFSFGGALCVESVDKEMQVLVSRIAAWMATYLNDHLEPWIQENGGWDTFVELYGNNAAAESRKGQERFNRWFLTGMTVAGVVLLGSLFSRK

## CC1(C)CCC(CN2CCN(c3ccc(C(=O)NS(=O)(=O)c4ccc(NC(CO)C5CCOCC5)c([N+](=O)[O-])c4)c(Oc4ccc5[nH]ccc5c4)c3)CC2)=C(c2ccc(Cl)cc2)C1 (stereo not drawn) [Example 242, 4-(4-{[2-(4-chlorophenyl)-4,4-dimethylcyclohex-1-en-1-yl]methyl}piperazin-1-yl)-N-({4-[(2-hydroxy-1-tetrahydro-2H-pyran-4-ylethyl)amino]-3-nitrophenyl}sulfonyl)-2-(1H-indol-5-yloxy)benzamide]
[1]
  Ki: > 660 nM
[2]
  Ki: 1.8 nM
[3]
  EC50: 165 nM

## CC1(C)CCC(CN2CCN(c3ccc(C(=O)NS(=O)(=O)c4ccc(NC5CCN(CCn6cccn6)CC5)c([N+](=O)[O-])c4)c(Oc4ccc5[nH]ccc5c4)c3)CC2)=C(c2ccc(Cl)cc2)C1 [Example 243, 4-(4-{[2-(4-chlorophenyl)-4,4-dimethylcyclohex-1-en-1-yl]methyl}piperazin-1-yl)-2-(1H-indol-5-yloxy)-N-{[3-nitro-4-({1-[2-(1H-pyrazol-1-yl)ethyl]piperidin-4-yl}amino)phenyl]sulfonyl}benzamide]
[1]
  Ki: > 660 nM
[2]
  Ki: 0.28 nM
[3]
  EC50: 28 nM

## CC1(C)CCC(CN2CCN(c3ccc(C(=O)NS(=O)(=O)c4ccc(NCC5CCOCC5)c([N+](=O)[O-])c4)c(Oc4cccc5[nH]ccc45)c3)CC2)=C(c2ccc(Cl)cc2)C1 [Example 244, 4-(4-{[2-(4-chlorophenyl)-4,4-dimethylcyclohex-1-en-1-yl]methyl}piperazin-1-yl)-2-(1H-indol-4-yloxy)-N-({3-nitro-4-[(tetrahydro-2H-pyran-4-ylmethyl)amino]phenyl}sulfonyl)benzamide]
[1]
  Ki: > 660 nM
[2]
  Ki: 0.16 nM
[3]
  EC50: 20.2 nM

## CNc1ccc(S(=O)(=O)NC(=O)c2ccc(N3CCN(CC4=C(c5ccc(Cl)cc5)CC(C)(C)CC4)CC3)cc2Oc2ccc3[nH]ccc3c2)cc1[N+](=O)[O-] [Example 245, 4-(4-{[2-(4-chlorophenyl)-4,4-dimethylcyclohex-1-en-1-yl]methyl}piperazin-1-yl)-2-(1H-indol-5-yloxy)-N-{[4-(methylamino)-3-nitrophenyl]sulfonyl}benzamide]
[1]
  Ki: > 660 nM
[2]
  Ki: 1.62 nM
[3]
  EC50: 72.4 nM

## CNc1ccc(S(=O)(=O)NC(=O)c2ccc(N3CCN(CC4=C(c5ccc(Cl)cc5)CC(C)(C)CC4)CC3)cc2Oc2cccc3[nH]ccc23)cc1[N+](=O)[O-] [Example 246, 4-(4-{[2-(4-chlorophenyl)-4,4-dimethylcyclohex-1-en-1-yl]methyl}piperazin-1-yl)-2-(1H-indol-4-yloxy)-N-{[4-(methylamino)-3-nitrophenyl]sulfonyl}benzamide]
[1]
  Ki: 384 nM
[2]
  Ki: 0.783 nM
[3]
  EC50: 48 nM

## CC(c1ccccc1-c1ccc(Cl)cc1)N1CCN(c2ccc(C(=O)NS(=O)(=O)c3ccc(NCCCN4CCOCC4)c([N+](=O)[O-])c3)c(Oc3cccc4[nH]ccc34)c2)CC1 (stereo not drawn) [Example 247, 4-{4-[1-(4′-chloro-1,1′-biphenyl-2-yl)ethyl]piperazin-1-yl}-2-(1H-indol-4-yloxy)-N-({4-[(3-morpholin-4-ylpropyl)amino]-3-nitrophenyl}sulfonyl)benzamide]
[1]
  Ki: 27.3 nM
[2]
  Ki: 0.188 nM
[3]
  EC50: 16.1 nM

## O=C(NS(=O)(=O)c1ccc(NCC2CCOCC2)c([N+](=O)[O-])c1)c1ccc(N2CCN(CC3=C(c4ccc(Cl)cc4)CCC(O)C3)CC2)cc1Oc1ccc2[nH]ccc2c1 (stereo not drawn) [Example 248, 4-(4-{[2-(4-chlorophenyl)-5-hydroxycyclohex-1-en-1-yl]methyl}piperazin-1-yl)-2-(1H-indol-5-yloxy)-N-({3-nitro-4-[(tetrahydro-2H-pyran-4-ylmethyl)amino]phenyl}sulfonyl)benzamide]
[1]
  Ki: 155 nM
[2]
  Ki: 0.013 nM
[3]
  EC50: 49.8 nM

## O=C(NS(=O)(=O)c1ccc(NCC2CCOCC2)c([N+](=O)[O-])c1)c1ccc(N2CCN(CC3=C(c4ccc(Cl)cc4)CCC(N4CCOCC4)C3)CC2)cc1Oc1ccc2[nH]ccc2c1 (stereo not drawn) [Example 249, 4-(4-{[2-(4-chlorophenyl)-5-morpholin-4-ylcyclohex-1-en-1-yl]methyl}piperazin-1-yl)-2-(1H-indol-5-yloxy)-N-({3-nitro-4-[(tetrahydro-2H-pyran-4-ylmethyl)amino]phenyl}sulfonyl)benzamide]
[1]
  Ki: > 660 nM
[2]
  Ki: 0.09 nM
[3]
  EC50: 41.2 nM

## CC1(C)CCC(CN2CCN(c3ccc(C(=O)NS(=O)(=O)c4ccc(NCC5(N)CCCCC5)c([N+](=O)[O-])c4)c(Oc4ccc5[nH]ccc5c4)c3)CC2)=C(c2ccc(Cl)cc2)C1 [Example 250, N-[(4-{[(1-aminocyclohexyl)methyl]amino}-3-nitrophenyl)sulfonyl]-4-(4-{[2-(4-chlorophenyl)-4,4-dimethylcyclohex-1-en-1-yl]methyl}piperazin-1-yl)-2-(1H-indol-5-yloxy)benzamide]
[1]
  Ki: 215 nM
[2]
  Ki: 0.266 nM
[3]
  EC50: 79.5 nM

## CC1(C)CCC(CN2CCN(c3ccc(C(=O)NS(=O)(=O)c4ccc(NCCN5CCCC5=O)c([N+](=O)[O-])c4)c(Oc4ccc5[nH]ccc5c4)c3)CC2)=C(c2ccc(Cl)cc2)C1 [Example 251, 4-(4-{[2-(4-chlorophenyl)-4,4-dimethylcyclohex-1-en-1-yl]methyl}piperazin-1-yl)-2-(1H-indol-5-yloxy)-N-[(3-nitro-4-{[2-(2-oxopyrrolidin-1-yl)ethyl]amino}phenyl)sulfonyl]benzamide]
[1]
  Ki: 472 nM
[2]
  Ki: 0.328 nM
[3]
  EC50: 78.1 nM

## CC(c1ccccc1-c1ccc(Cl)cc1)N1CCN(c2ccc(C(=O)NS(=O)(=O)c3ccc(NCC4CCOCC4)c([N+](=O)[O-])c3)c(Oc3ccc4[nH]ccc4c3)c2)CC1 (stereo not drawn) [Example 252, 4-{4-[1-(4′-chloro-1,1′-biphenyl-2-yl)ethyl]piperazin-1-yl}-2-(1H-indol-5-yloxy)-N-({3-nitro-4-[(tetrahydro-2H-pyran-4-ylmethyl)amino]phenyl}sulfonyl)benzamide]
[1]
  Ki: > 660 nM
[2]
  Ki: 0.077 nM
[3]
  EC50: 6.62 nM

## CC(C1=C(c2ccc(Cl)cc2)CC(C)(C)CC1)N1CCN(c2ccc(C(=O)NS(=O)(=O)c3ccc(NCC4CCOCC4)c([N+](=O)[O-])c3)c(Oc3ccc4[nH]ccc4c3)c2)CC1 (stereo not drawn) [Example 253, 4-(4-{1-[2-(4-chlorophenyl)-4,4-dimethylcyclohex-1-en-1-yl]ethyl}piperazin-1-yl)-2-(1H-indol-5-yloxy)-N-({3-nitro-4-[(tetrahydro-2H-pyran-4-ylmethyl)amino]phenyl}sulfonyl)benzamide]
[1]
  Ki: > 660 nM
[2]
  Ki: 0.142 nM
[3]
  EC50: 7.58 nM

## CC(C1=C(c2ccc(Cl)cc2)CC(C)(C)CC1)N1CCN(c2ccc(C(=O)NS(=O)(=O)c3ccc(NN4CCN(C)CC4)c([N+](=O)[O-])c3)c(Oc3ccc4[nH]ccc4c3)c2)CC1 (stereo not drawn) [Example 254, 4-(4-{1-[2-(4-chlorophenyl)-4,4-dimethylcyclohex-1-en-1-yl]ethyl}piperazin-1-yl)-2-(1H-indol-5-yloxy)-N-({4-[(4-methylpiperazin-1-yl)amino]-3-nitrophenyl}sulfonyl)benzamide]
[1]
  Ki: 53.3 nM
[2]
  Ki: 0.126 nM
[3]
  EC50: 16.9 nM

## C[C@H](c1ccccc1-c1ccc(Cl)cc1)N1CCN(c2ccc(C(=O)NS(=O)(=O)c3ccc(NCC4CCOCC4)c([N+](=O)[O-])c3)c(Oc3cccc4[nH]ccc34)c2)CC1 [Example 255, 4-{4-[(1R)-1-(4′-chloro-1,1′-biphenyl-2-yl)ethyl]piperazin-1-yl}-2-(1H-indol-4-yloxy)-N-({3-nitro-4-[(tetrahydro-2H-pyran-4-ylmethyl)amino]phenyl}sulfonyl)benzamide]
[1]
  Ki: > 660 nM
[2]
  Ki: 7.83 nM
[3]
  EC50: > 500 nM
